Data reported in US11214594B2, “Antimicrobial peptide having synergistic antibacterial effect with antibiotics on multidrug resistant bacteria, and use thereof” (priority 2016, dated 2022).
Where a SMILES comes first, the peptide text is derived from it. [ ]: non-standard residue; d: D form.

What was measured:
[1] = tested on: E. coli; assay: microbe, parasite or virus in culture; assay type: cell-based, Escherichia coli; conditions: 16 h
Outline: (§1)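 Peptides were serially diluted twofold in Mueller-Hinton medium and combined 1:1 with bacterial suspensions prepared at 2×10^6 CFU. Readout was the minimal inhibitory concentration, i.e. the lowest concentration with no growth.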

[2] = tested on: MDREC 1229; assay: microbe, parasite or virus in culture; assay type: cell-based, Escherichia coli
Outline: as §1

[3] = tested on: P. aeruginosa; assay: microbe, parasite or virus in culture; assay type: cell-based, Pseudomonas aeruginosa
Outline: as §1

[4] = tested on: MDRST 8009; assay type: cell-based, Salmonella typhimurium; conditions: agent alone
Experimental: For the antibacterial activity, a minimal inhibitory concentration (MIC) of a peptide in which fungus bodies were not split in an MH medium with sufficient nutrients was measured.
Specifically, the strains described in the following [Table 2] were purchased and diluted with an MH medium such that the number of bacteria was 2×10^6 colony-forming units (CFUs), 100 μl of each of the diluted strains was aliquoted into a 96-well microtiter plate, and then 100 μl of a peptide solution diluted with the MH medium (solution diluted stepwise at 2: 1) was added to each well.

[5] = tested on: B. subtilis; assay: microbe, parasite or virus in culture; assay type: cell-based, Bacillus subtilis
Outline: as §1

[6] = tested on: S. epidermidis; assay: microbe, parasite or virus in culture; assay type: cell-based, Staphylococcus epidermidis
Outline: as §1

[7] = tested on: E. coli; assay: MIC of antibiotic during combined treatment with antimicrobial peptide; assay type: cell-based, Escherichia coli; conditions: for Antibiotic MIC, Erythromycin / Antibiotic MIC, Linezolid / Antibiotic MIC, Vancomycin: E. coli
Outline: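 First, antibiotic solution is diluted with MH medium; next, the dilution is dispensed into wells containing peptide; finally, the orientation is swapped and MIC of each mixture determined.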

[8] = tested on: MDREC 1229; assay: as above; assay type: cell-based, Escherichia coli
Experimental: Specifically, the strains described in [Table 2] were prepared and diluted with an MH medium such that the number of bacteria was 2×10^6 colony-forming units (CFUs) per 1 ml, 100 μl of the diluted strains was each aliquoted into a 96-well microtiter plate, and then 50 μl of a peptide solution diluted with the MH medium from the MIC value (solution diluted stepwise at 2: 1) was added to each well. Thereafter, the MIC value of each mixed solution was determined by diluting the antibiotic solution with the MH medium, adding 50 μl of the diluted solution to each well, and performing an experiment even under a reversed condition.

[9] = tested on: A. baumannii; assay: as above; assay type: cell-based, Acinetobacter baumannii
Experimental: Thereafter, the MIC value of each mixed solution was determined by diluting the antibiotic solution with the MH medium, adding 50 μl of the diluted solution to each well, and performing an experiment even under a reversed condition.

[10] = peptide treatment concentration 1 μg/ml
[11] = peptide treatment concentration 2 μg/ml
[12] = peptide treatment concentration 4 μg/ml
[13] = peptide treatment concentration 6 μg/ml
[14] = peptide treatment concentration 8 μg/ml
[15] = peptide treatment concentration 16 μg/ml
[16] = peptide treatment concentration 32 μg/ml
[17] = peptide treatment concentration 64 μg/ml
[18] = A. baumannii, combined with peptide at 1 μg/ml

CC[C@H](C)[C@H](NC(=O)[C@H](CCCCN)NC(=O)[C@H](Cc1c[nH]c2ccccc12)NC(=O)[C@@H](N)CCCNC(=N)N)C(=O)N[C@@H](Cc1ccccc1)C(=O)N[C@@H](CCCCN)C(=O)N[C@@H](CCCCN)C(=O)N[C@H](C(=O)N[C@H](CCCCN)C(=O)N[C@@H](CCCCN)C(=O)N[C@@H](CC(C)C)C(=O)N[C@@H](CC(C)C)C(=O)N[C@@H](Cc1c[nH]cn1)C(=O)N[C@@H](CCC(=O)O)C(=O)N[C@@H](Cc1ccccc1)C(=O)N[C@@H](CCCCN)C(=O)N[C@@H](CCCCN)C(=O)N[C@@H](Cc1ccccc1)C(N)=O)[C@@H](C)CC [PapMA-19, RWK IFK KIk KLL HEF KKF-NH2] (H-RWKIFKKI[dK]KLLHEFKKF-NH2; N-terminus assumed)
32 µg/mL: Minimal inhibitory concentration MIC [1] | Minimal inhibitory concentration MIC [2] | Peptide MIC, peptide alone [2] | Antibiotic MIC, Erythromycin ([7]; erythromycin combined with peptide at 2 μg/ml) | Antibiotic MIC, Linezolid ([7]; linezolid combined with peptide at 4 μg/ml) | Antibiotic MIC, Erythromycin [8, 11] | Antibiotic MIC, Linezolid [8, 12] | Antibiotic MIC, Erythromycin [9, 18]
>128 µg/mL: Minimal inhibitory concentration MIC [5] | Minimal inhibitory concentration MIC [6] | Antibiotic MIC, Linezolid ([7]; linezolid combined with peptide at 1 μg/ml) | Antibiotic MIC, Vancomycin ([7]; vancomycin combined with peptide at 1 μg/ml) | Antibiotic MIC, Linezolid [8, 10] | Antibiotic MIC, Vancomycin [8, 10] | Antibiotic MIC, Linezolid [9, 18] | Antibiotic MIC, Vancomycin [9, 18]
8 µg/mL: Antibiotic MIC, Erythromycin ([7]; erythromycin combined with peptide at 4 μg/ml) | Antibiotic MIC, Linezolid ([7]; linezolid combined with peptide at 6 μg/ml) | Antibiotic MIC, Linezolid ([7]; linezolid combined with peptide at 8 μg/ml) | Antibiotic MIC, Vancomycin ([7]; vancomycin combined with peptide at 6 μg/ml) | Antibiotic MIC, Vancomycin ([7]; vancomycin combined with peptide at 8 μg/ml) | Antibiotic MIC, Erythromycin [8, 12] | Antibiotic MIC, Vancomycin [8, 13] | Antibiotic MIC, Vancomycin [8, 14]
64 µg/mL: Minimal inhibitory concentration MIC [3] | Minimal inhibitory concentration MIC [4] | Antibiotic MIC, Erythromycin ([7]; erythromycin combined with peptide at 1 μg/ml) | Antibiotic MIC, Linezolid ([7]; linezolid combined with peptide at 2 μg/ml) | Antibiotic MIC, Vancomycin ([7]; vancomycin combined with peptide at 4 μg/ml) | Antibiotic MIC, Vancomycin [8, 12]
2 µg/mL: Antibiotic MIC, Erythromycin ([7]; erythromycin combined with peptide at 6 μg/ml) | Antibiotic MIC, Erythromycin [8, 13]
1 µg/mL: Antibiotic MIC, Erythromycin ([7]; erythromycin combined with peptide at 8 μg/ml) | Antibiotic MIC, Erythromycin [8, 14]
16 µg/mL: Antibiotic MIC, Linezolid [8, 13] | Antibiotic MIC, Linezolid [8, 14]
0.25 µg/mL: Antibiotic MIC, Erythromycin ([7]; erythromycin combined with peptide at 16 μg/ml)
4 µg/mL: Antibiotic MIC, Linezolid ([7]; linezolid combined with peptide at 16 μg/ml) | Antibiotic MIC, Vancomycin ([7]; vancomycin combined with peptide at 16 μg/ml) | Antibiotic MIC, Linezolid [8, 15] | Antibiotic MIC, Vancomycin [8, 15]
0.5 µg/mL: Antibiotic MIC, Erythromycin [8, 15]
higher level than the PapMA-1 peptide: Synergistic effect of antibacterial activity with existing antibiotics compared with PapMA-1 ([7]; E. coli and MDREC1229) | Synergistic effect of antibacterial activity with existing antibiotics compared with PapMA-1 ([9]; A. baumannii and MDRAB 12035)
0 µg/mL: Antibiotic MIC, Erythromycin ([7]; erythromycin combined with peptide at 32 μg/ml) | Antibiotic MIC, Erythromycin ([7]; erythromycin combined with peptide at 64 μg/ml) | Antibiotic MIC, Linezolid ([7]; linezolid combined with peptide at 32 μg/ml) | Antibiotic MIC, Linezolid ([7]; linezolid combined with peptide at 64 μg/ml) | Antibiotic MIC, Vancomycin ([7]; vancomycin combined with peptide at 32 μg/ml) | Antibiotic MIC, Vancomycin ([7]; vancomycin combined with peptide at 64 μg/ml) | Antibiotic MIC, Erythromycin [8, 16] | Antibiotic MIC, Linezolid [8, 16] | Antibiotic MIC, Vancomycin [8, 16] | Antibiotic MIC, Erythromycin [8, 17] | Antibiotic MIC, Linezolid [8, 17] | Antibiotic MIC, Vancomycin [8, 17]
128 µg/mL: Antibiotic MIC, Vancomycin ([7]; vancomycin combined with peptide at 2 μg/ml) | Antibiotic MIC, Erythromycin [8, 10] | Antibiotic MIC, Linezolid [8, 11] | Antibiotic MIC, Vancomycin [8, 11]
